18 compounds from PubChem BioAssay AID328 (DTP/NCI, 2004) can be followed below.

The structures appear in SMILES notation. Several values for one entry are separate records, joined by “and”; a condition that tells them apart may be missing. Equal entries are not always repeated. Toxic doses and inconclusive results are not listed.

The test system of the assay is BDF1 mice, P388 leukemia ip, median survival T/C. Kind of assay: NCI In Vivo Anticancer Drug Screen. Data for tumor model P388 Leukemia (intraperitoneal) in B6D2F1 (BDF1) mice. The conditions noted are these: endpoint: median survival time, higher = longer survival. The method, boiled down:
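Transplantable tumour in mice; compound vs vehicle dosing; survival scored; ratio of treated to control reported.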

[1] abbreviates: dose: 40.0 mg/kg/injection, schedule: Q01DX009 (ip), vehicle: saline.
[2] abbreviates: dose: 40.0 mg/kg/injection, schedule: Q04DX003 (ip), vehicle: saline.
[3] abbreviates: dose: 50.0 mg/kg/injection, schedule: Q01DX009 (ip), vehicle: saline.
[4] abbreviates: dose: 100.0 mg/kg/injection, schedule: Q01DX009 (ip), vehicle: saline.
Where [5] appears, read: dose: 200.0 mg/kg/injection, schedule: Q01DX009 (ip), vehicle: saline.
Where [6] appears, read: dose: 50.0 mg/kg/injection, schedule: Q01DX009 (ip), vehicle: saline with Tween-80.
Setting [7] is: dose: 100.0 mg/kg/injection, schedule: Q01DX009 (ip), vehicle: saline with Tween-80.
Where [8] appears, read: dose: 200.0 mg/kg/injection, schedule: Q01DX009 (ip), vehicle: saline with Tween-80.
Setting [9] is: dose: 50.0 mg/kg/injection, schedule: Q04DX003 (ip), vehicle: saline.
The mark [10] stands for this setting: dose: 100.0 mg/kg/injection, schedule: Q04DX003 (ip), vehicle: saline.
Setting [11] is: dose: 200.0 mg/kg/injection, schedule: Q04DX003 (ip), vehicle: saline.
The mark [12] stands for this setting: dose: 12.5 mg/kg/injection, schedule: Q01DX009 (ip), vehicle: saline.
[13] abbreviates: dose: 6.25 mg/kg/injection, schedule: Q01DX009 (ip), vehicle: saline.

`Cc1nc2ccccc2nc1CI`: the T/C by setting is: (dose: 2.9 mg/kg/injection, schedule: Q01DX009 (ip), vehicle: saline) 110 % of control; (dose: 4.5 mg/kg/injection, schedule: Q01DX009 (ip), vehicle: saline) 120 % of control; (dose: 10.0 mg/kg/injection, schedule: Q04DX003 (ip), vehicle: saline) 115 % of control; (dose: 17.0 mg/kg/injection, schedule: Q01DX009 (ip), vehicle: saline) 100 % of control and 116 % of control; (dose: 20.0 mg/kg/injection, schedule: Q04DX003 (ip), vehicle: saline) 110 % of control; (dose: 26.0 mg/kg/injection, schedule: Q01DX009 (ip), vehicle: saline) 110 % of control. Moreover, the T/C is 88 % of control (dose: 30.0 mg/kg/injection, schedule: Q01DX001 (ip), vehicle: Klucel (hydroxypropylcellulose) (HPC)); 100 % of control and 116 % of control under setting [1]; 110 % of control under setting [2].
As to `CC1C=CC(=O)O1` (stereo unspecified), the T/C is 105 % of control under setting [3]; 105 % of control under setting [4]; 112 % of control under setting [5]; 112 % of control (dose: 400.0 mg/kg/injection, schedule: Q01DX009 (ip), vehicle: saline).
As to `Cc1ccc2c(c1)NC(c1ccc(C(=O)O)cc1)c1cccn1-2` (stereo unspecified), the T/C under setting [6] is 86 % of control, the T/C under setting [7] was 89 % of control and the T/C under setting [8] was 91 % of control.
With `COc1cccc(N2C(=O)CSC2=S)c1`, the T/C by setting is: under setting [7], 91 % of control; under setting [8], 100 % of control.
`CN(c1ccccc1)c1ccc([N+](=O)[O-])c2no[n+]([O-])c12`: the T/C was 106 % of control (dose: 15.0 mg/kg/injection, schedule: Q01DX009 (ip), vehicle: saline with Tween-80) and 118 % of control (dose: 30.0 mg/kg/injection, schedule: Q01DX009 (ip), vehicle: saline with Tween-80).
Turning to `NCCCCS(=O)(=O)Nc1ccc(Nc2c3ccccc3nc3cc([N+](=O)[O-])ccc23)cc1`, the T/C is, setting by setting: (dose: 2.93 mg/kg/injection, schedule: Q04DX003 (ip), vehicle: saline) 122 % of control; (dose: 33.0 mg/kg/injection, schedule: Q04DX003 (ip), vehicle: saline) 154 % of control; under setting [9], 154 % of control; (dose: 75.0 mg/kg/injection, schedule: Q04DX003 (ip), vehicle: saline) 172 % of control; under setting [10], 161 % of control; under setting [11], 161 % of control.
For the compound `CC#CCOCC1CO1` (stereo unspecified), the T/C runs as follows: (dose: 66.0 mg/kg/injection, schedule: Q01DX009 (ip), vehicle: saline with Tween-80) 160 % of control; under setting [7], 115 % of control; under setting [10], 104 % of control; under setting [11], 100 % of control.
For `O=S(=O)(Cl)CCCBr`, the T/C is 100 % of control (dose: 50.0 mg/kg/injection, schedule: Q01DX001 (ip), vehicle: saline sonified); 100 % of control (dose: 100.0 mg/kg/injection, schedule: Q01DX001 (ip), vehicle: saline sonified); 100 % of control (dose: 200.0 mg/kg/injection, schedule: Q01DX001 (ip), vehicle: saline sonified).
For the compound `COc1cc2c(ccc3c4cc(OC)c(OC)cc4c[n+](C)c23)cc1O`, the T/C runs as follows: (dose: 12.5 mg/kg/injection, schedule: Q01DX009 (ip), vehicle: Klucel (hydroxypropylcellulose) (HPC)) 165 % of control; (dose: 25.0 mg/kg/injection, schedule: Q01DX009 (ip), vehicle: Klucel (hydroxypropylcellulose) (HPC)) 173 % of control; (dose: 25.0 mg/kg/injection, schedule: Q01DX010 (ip), vehicle: saline) 190 % of control; under setting [1], 190 % of control; under setting [2], 190 % of control; (dose: 50.0 mg/kg/injection, schedule: Q01DX009 (ip), vehicle: Klucel (hydroxypropylcellulose) (HPC)) 219 % of control. In addition, the T/C by setting is: (dose: 50.0 mg/kg/injection, schedule: Q01DX010 (ip), vehicle: saline) 210 % of control; (dose: 80.0 mg/kg/injection, schedule: Q01DX009 (ip), vehicle: saline) 210 % of control; (dose: 80.0 mg/kg/injection, schedule: Q04DX003 (ip), vehicle: saline) 180 % of control; (dose: 100.0 mg/kg/injection, schedule: Q01DX009 (ip), vehicle: Klucel (hydroxypropylcellulose) (HPC)) 230 % of control; (dose: 100.0 mg/kg/injection, schedule: Q01DX010 (ip), vehicle: saline) 265 % of control; (dose: 160.0 mg/kg/injection, schedule: Q01DX009 (ip), vehicle: saline) 270 % of control. For the same compound, the T/C was 215 % of control (dose: 160.0 mg/kg/injection, schedule: Q04DX003 (ip), vehicle: saline); 205 % of control (dose: 320.0 mg/kg/injection, schedule: Q01DX009 (ip), vehicle: saline); 270 % of control (dose: 320.0 mg/kg/injection, schedule: Q04DX003 (ip), vehicle: saline).
On to `Cc1cc(NC(=O)Nc2cccc(C3=NCCN3)c2)ccc1NC(=O)Nc1cccc(C2=NCCN2)c1`, for which the T/C under setting [7] is 118 % of control and the T/C (dose: 400.0 mg/kg/injection, schedule: Q01DX009 (ip), vehicle: saline with Tween-80) is 190 % of control.
For `CCCCCCCCCCCC[N+]1([O-])CCCC1`, the T/C runs as follows: under setting [12], 100 % of control; (dose: 25.0 mg/kg/injection, schedule: Q01DX009 (ip), vehicle: saline) 93 % of control; under setting [3], 87 % of control.
Take `c1cc[n+](CCSCCSCC[n+]2ccccc2)cc1`: the T/C was 120 % of control (dose: 1.56 mg/kg/injection, schedule: Q01DX009 (ip), vehicle: saline); 122 % of control (dose: 2.3 mg/kg/injection, schedule: Q04DX003 (ip), vehicle: saline); 104 % of control and 113 % of control (dose: 3.0 mg/kg/injection, schedule: Q04DX003 (ip), vehicle: saline); 105 % of control (dose: 3.12 mg/kg/injection, schedule: Q01DX009 (ip), vehicle: saline); 100 % of control and 109 % of control (dose: 4.6 mg/kg/injection, schedule: Q04DX003 (ip), vehicle: saline); 105 % of control under setting [13]. Moreover, the T/C (dose: 6.9 mg/kg/injection, schedule: Q04DX003 (ip), vehicle: saline) was 109 % of control; the T/C (dose: 9.2 mg/kg/injection, schedule: Q01DX009 (ip), vehicle: saline) was 88 % of control; the T/C (dose: 9.2 mg/kg/injection, schedule: Q04DX003 (ip), vehicle: saline) was 100 % of control; the T/C (dose: 13.0 mg/kg/injection, schedule: Q04DX003 (ip), vehicle: saline) was 100 % of control.
Turning to `CN(C)C(CC(=O)c1ccccc1)C(=O)O` (stereo unspecified), under “dose: 50.0 mg/kg/injection, schedule: Q04DX003 (ip), vehicle: saline sonified”, the T/C was 104 % of control.
In the case of `CCn1c(O)c(C=N)c(=O)[nH]c1=O`, the T/C is 100 % of control under setting [3]; 103 % of control under setting [9]; 109 % of control under setting [4]; 100 % of control under setting [10]; 109 % of control under setting [5]; 115 % of control under setting [11].
For the compound `CCCCCCCCCCC[N+](C)(C)CC(O)C[N+](C)(C)CCCCCCCCCCC`, the T/C runs as follows: (dose: 3.13 mg/kg/injection, schedule: Q01DX009 (ip), vehicle: saline) 102 % of control; under setting [13], 111 % of control; under setting [12], 118 % of control.
For `CC(C)CSc1nc(N)nc2nc[nH]c12`, the T/C was 109 % of control (dose: 100.0 mg/kg/injection, schedule: Q04DX003 (ip), vehicle: saline with Tween-80) and 109 % of control (dose: 200.0 mg/kg/injection, schedule: Q04DX003 (ip), vehicle: saline with Tween-80).
For `CC(C)n1c2c([n+](C)c1/C=C/c1ccccc1)C(=O)c1ccccc1C2=O`, the T/C runs as follows: (dose: 0.5 mg/kg/injection, schedule: Q01DX010 (ip), vehicle: saline) 109 % of control; (dose: 1.0 mg/kg/injection, schedule: Q01DX009 (ip), vehicle: Klucel (hydroxypropylcellulose) (HPC)) 105 % of control; (dose: 2.0 mg/kg/injection, schedule: Q01DX010 (ip), vehicle: saline) 122 % of control.
As for `COc1cccc2ccc(CC(O)(c3ccccc3)c3ccccc3)nc12`, the T/C reads like this: (dose: 25.0 mg/kg/injection, schedule: Q01DX009 (ip), vehicle: saline with Tween-80) 91 % of control; under setting [6], 100 % of control; under setting [7], 100 % of control.
